Five compounds from patent US20260000629A1, “FERROPTOSIS INHIBITOR” (TOHOKU UNIVERSITY, priority 2020, published 2026) can be followed below.

The test system of assay [1] is H9C2 cell line. The assay can be described thus: Ferroptosis induction treatment, cell viability by WST-8 assay, H9C2 cell line. The class given is cell-based, rat. The settings on record: for cell viability level compared with ferroptosis inducer alone: with 50 nM RSL3, 2 μM elastin, 0.3 μM ML210, 0.3 μM ML162, 0.5 μM FIN56, 100 μM BSO or 5 μM FINO2, FIG. 2; for decrease in the cell viability level caused by ferroptosis inducer: with 100 μM BSO, 2 μM elastin, 50 nM RSL3 or 0.5 μM FIN56, FIG. 1. The source says:
Three different cell lines (the H9C2 cell line, which is a rat cardiac myoblast cell line, the NR[…] cell line, which is a rat kidney fibroblast, and the C2C12 cell line, which is a mouse myoblast cell line) were obtained from the American Type Culture Collection (ATCC); the Panc-1 cell line, which is a human pancreatic cancer cell line, was obtained the Cell Resource Center for Biomedical Research, Institute of Development, Aging and Cancer, Tohoku University/Cell Bank; and the HT22 cell line, which is a mouse hippocampus nerve cell line, was purchased from Merck Millipore Co. All the cell lines were subcultured in a Dulbecco's Modified Eagle Medium (DMEM) culture solution containing 100-fold diluted 1% penicillin-streptomycin (26253-84; manufactured by Nacalai Tesque, Inc.) (hereinafter simply referred to as “DMEM culture solution”) to which 10% fetal bovine serum (FBS) and 4.5 g glucose/L were added (hereinafter referred to as “DMEM [high glucose] culture solution”) under conditions of 5% CO2/20% O2 and 37° C. 4000 cells of five different cell lines (the H9C2 cell line, the Panc-1 cell line, the NR[…] cell line, the C2C12 cell line, and the HT22 cell line) were seeded on a 96-well plate and cultured overnight in a DMEM culture solution containing 1.0 g glucose/L (low glucose) and 1% FBS (hereinafter referred to as “DMEM [low glucose low serum] culture solution”). After the procedure of the above-mentioned, ferroptosis was induced in cells from the above-mentioned five different cell lines in the presence of each of […] of the present invention (vitamin K1, vitamin K2 [menaquinone-4], vitamin K3, or vitamin K3 hydroquinone) (see Table 1) or a known ferroptosis inhibitor (ferrostatin 1). Specifically, cells from the H9C2 cell line were cultured in the presence of each of six different test substances (10 μM vitamin K1 [manufactured by FUJIFILM Wako Pure Chemical Corporation], 10 μM menaquinone-4 [manufactured by Sigma-Aldrich], 3 μM or 1 μM menadione [manufactured by Sigma-Aldrich], 1 μM vitamin K3 hydroquinone [manufactured by Toronto Research Chemicals], or 0.3 μM ferrostatin 1 [manufactured by Cayman]) at various concentrations and each of eight different ferroptosis inducers (100 μM BSO [manufactured by Sigma-Aldrich], 1.5 μM or 2 μM elastin [manufactured by Cayman], 50 nM RSL3 [manufactured by Selleck Chemicals], 0.3 μM ML210 [manufactured by Cayman], 0.3 μM ML162 [manufactured by Cayman], 0.5 μM FIN56 [manufactured by Cayman], 5 μM FINO2 [manufactured by Cayman], or 4 mM glutamic acid [manufactured by Sigma-Aldrich]) for 60 hours for BSO treatment, for 48 hours for elastin treatment, RSL3 treatment, and FIN56 treatment, and for 24 hours for ML210 treatment, ML162 treatment, FINO2 treatment, and glutamic acid treatment. Cell viability levels were measured by WST-8 assay using Cell Count Reagent SF. The cell viability level was calculated as a relative value of the cell survival level when the cell viability level when cultured in the absence of a test substance and a ferroptosis inducer was set to 1.
(Tetrazolium assays rely on reduction of a dye to a coloured formazan, in cell work by metabolically active cells.)

The subject of assay [2] is Panc-1 cell line. The assay can be described thus: Ferroptosis induction treatment, cell viability by WST-8 assay, Panc-1 cell line. The settings on record: with 5 μM elastin, FIG. 3A. The class given is cell-based, human. The source says: (§1) Three different cell lines (the H9C2 cell line, which is a rat cardiac myoblast cell line, the NR[…] cell line, which is a rat kidney fibroblast, and the C2C12 cell line, which is a mouse myoblast cell line) were obtained from the American Type Culture Collection (ATCC); the Panc-1 cell line, which is a human pancreatic cancer cell line, was obtained the Cell Resource Center for Biomedical Research, Institute of Development, Aging and Cancer, Tohoku University/Cell Bank; and the HT22 cell line, which is a mouse hippocampus nerve cell line, was purchased from Merck Millipore Co. All the cell lines were subcultured in a Dulbecco's Modified Eagle Medium (DMEM) culture solution containing 100-fold diluted 1% penicillin-streptomycin (26253-84; manufactured by Nacalai Tesque, Inc.) (hereinafter simply referred to as “DMEM culture solution”) to which 10% fetal bovine serum (FBS) and 4.5 g glucose/L were added (hereinafter referred to as “DMEM [high glucose] culture solution”) under conditions of 5% CO2/20% O2 and 37° C. 4000 cells of five different cell lines (the H9C2 cell line, the Panc-1 cell line, the NR[…] cell line, the C2C12 cell line, and the HT22 cell line) were seeded on a 96-well plate and cultured overnight in a DMEM culture solution containing 1.0 g glucose/L (low glucose) and 1% FBS (hereinafter referred to as “DMEM [low glucose low serum] culture solution”). After the procedure of the above-mentioned, ferroptosis was induced in cells from the above-mentioned five different cell lines in the presence of each of five different vitamin K group compounds of the present invention (vitamin K1, vitamin K2 [menaquinone-4], vitamin K3, or vitamin K3 hydroquinone) (see Table 1) or a known ferroptosis inhibitor (ferrostatin 1). […] Cell viability levels were measured by WST-8 assay using Cell Count Reagent SF. The cell viability level was calculated as a relative value of the cell survival level when the cell viability level when cultured in the absence of a test substance and a ferroptosis inducer was set to 1.

The subject of assay [3] is NRK49F cell line. The assay can be described thus: Ferroptosis induction treatment, cell viability by WST-8 assay, NRK49F cell line. The class given is cell-based, rat. The conditions noted are these: with 500 μM BSO, FIG. 3B.
From the text: as §1

Assay [4] relates to C2C12 cell line. Put plainly: Ferroptosis induction treatment, cell viability by WST-8 assay, C2C12 cell line. The settings on record: with 500 μM BSO, FIG. 3C. The class given is cell-based, mouse.
From the text: as §1

In assay [5] the test system is HT22 cell line. Put plainly: Ferroptosis induction treatment (glutamic acid), cell viability by WST-8 assay, HT22 cell line. The conditions noted are these: with 4 mM glutamic acid, FIG. 4. The class given is cell-based, mouse.
From the text: as §1

For assay [6], the system named is lipid peroxy radicals (LOO·). The assay can be described thus: Scavenging ability against lipid peroxy radicals, AA/LOX system using NBD-Pen fluorescence probe. The class given is biochemical. The conditions noted are these: 100 μM test substance; AA and LOX, PBS pH 7.4, 37° C.; vs absence of test substance; FIG. 6. As to the method: The scavenging ability against lipid peroxy radicals (LOO·) was analyzed by the AA/LOX system using an NBD-Pen fluorescence probe in accordance with the method in “Nat Chem Biol 12:608-613, 2016.” Specifically, a mixture solution of 0.1% DMSO or 100 μM each of four different test substances (vitamin K1 [manufactured by FUJIFILM Wako Pure Chemical Corporation], vitamin K2 [menaquinone-4; manufactured by Sigma-Aldrich], menadione [manufactured by Sigma-Aldrich], or vitamin K3 hydroquinone [manufactured by Toronto Research Chemicals]) and PBS (pH 7.4) containing 500 μM arachidonic acid (manufactured by Sigma-Aldrich) and 1 mM dithiothreitol (DTT) was prepared and added to a 96-well plate, then 5 μM NBD-Pen fluorescence probe and 10 μg/mL LOX solution (manufactured by Sigma-Aldrich) were added, and the fluorescence level (excitation light, 470 nm; fluorescence wavelength, 530 nm) was measured using a microplate reader (Spectra Max M2e; manufactured by Molecular Devices) at 37° C. […] In the AA/LOX system using an NBD-Pen fluorescence probe, an oxidation reaction of AA by LOX produces a lipid peroxide (LOOH), a lipid peroxy radical (LOO·) is produced from the produced LOOH by Fenton reaction using an iron ion (Fe^2+) as a catalyst, and a scavenging ability against lipid peroxy radicals is detected using the level of NBD-Pen-derived fluorescence produced by a reaction of the produced lipid peroxy radical with NBD-Pen as an indicator.

The test system of assay [7] is AHI model mice. The assay can be described thus: In vivo analysis using acute hepatic injury (AHI) model mice (LPS and D-GalN). Also on record: species or system mouse. The conditions noted are these: oral 20 mg/kg at 12 h and 2 h before LPS and D-GalN, vs AHI/solvent treatment group. As to the method:
An AHI model mouse was prepared by administering lipopolysaccharide (LPS) and D-galactosamine (D-GalN). Specifically, eight to nine week-old wild-type male mice (C57BL/6N; manufactured by CLEA) were divided into three groups (the wild type group [n=4], the AHI/solvent treatment group [n=7], and the AHI/VK2 treatment group [n=8]). At 12 hours and two hours before administration of LPS and D-GalN, 0.5% methylcellulose solution (solvent) was orally administered at a dose of 20 mg/kg (body weight) to the AHI/solvent treatment group, and a methylcellulose solution containing vitamin K2 (menaquinone-4) was orally administered at a dose of 20 mg (vitamin K2)/kg (body weight) to the AHI/VK2 treatment group. For LPS and D-GalN administration, PBS containing LPS and D-GalN was injected into the peritoneal cavity at a dose of 5 μg (LPS)/kg (body weight) and 500 mg (D-GalN)/kg (body weight) to the two AHI groups (that is, the AHI/solvent treatment group and the AHI/VK2 treatment group) (refer to “Sci Rep 7:1884, 2017”). The mice were sacrificed at six hours after injection, and blood and liver tissue were collected. The plasma GPT levels were measured for the collected blood using Fuji Dri-chem Slide GPT/ALT-P III (manufactured by Fujifilm Medical). Further, the collected liver tissue was fixed in 10% neutral buffered formalin and embedded in paraffin. The paraffin-embedded liver tissue was sliced to prepare liver tissue sections and subjected to hematoxylin and eosin (HE) staining. Further, deparaffinization treatment was performed by heating the liver tissue sections in a 0.01 M citric acid buffer solution (pH 6.0) at 120° C. for five minutes to prepare deparaffinized liver tissue sections. Immunohistological staining of the deparaffinized liver tissue sections using an anti-HEL antibody (50-fold diluted; clone 5F12; manufactured by JaICA) was performed in accordance with a usual method using a streptavidin-biotin-alkaline phosphatase kit (Histofine SAB-AP [M] kit; manufactured by Nichirei Corporation) and Vector Red Substrate kit (manufactured by Vector Laboratories). Further, dead cells were detected by the TUNEL method using Apop Tag Peroxidase In Situ Apoptosis Detection Kit (manufactured by Merck Millipore).

As for `CCOC(=O)c1ccc(NC2CCCCC2)c(N)c1` [ferrostatin 1], in assay [1] (0.3 μM test substance), the “cell viability level compared with ferroptosis inducer alone” value is given as “significantly increased” and the “decrease in the cell viability level caused by ferroptosis inducer” value (shortened to “decrease”) is “significantly suppressed”.
Regarding `CC1=CC(=O)c2ccccc2C1=O` [menadione, Menadione], the “decrease” value in assay [1] (1 μM test substance), in assay [2] (3 μM test substance), in assay [3] (3 μM test substance), in assay [4] (3 μM test substance) and in assay [5] (3 μM test substance) was “significantly suppressed” in each case. In assay [1] (3 μM test substance), the “cell viability level compared with ferroptosis inducer alone” value is recorded as “significantly increased”. Also, in assay [6], the “NBD-Pen fluorescence signal level (scavenging of lipid peroxy radicals)” value (“NBD-Pen fluorescence signal level” below) is listed as “decreased”.
As for `CC1=C(C/C=C(\C)CCCC(C)CCCC(C)CCCC(C)C)C(=O)c2ccccc2C1=O` (centres unmarked) [vitamin K1, Phylloquinone], in assay [1] (10 μM test substance), the “cell viability level compared with ferroptosis inducer alone” value is “significantly increased”. For the same compound, the “decrease” value in assay [1] (10 μM test substance), in assay [2] (10 μM test substance), in assay [3] (10 μM test substance), in assay [4] (10 μM test substance) and in assay [5] (10 μM test substance) was “significantly suppressed” each time. For the same compound, the “NBD-Pen fluorescence signal level” value in assay [6] was “decreased”.
As for `CC(C)=CCCC(C)=CCCC(C)=CCC/C(C)=C/CC1=C(C)C(=O)c2ccccc2C1=O` [vitamin K2, Menaquinone-4 (MK-4)], the “cell viability level compared with ferroptosis inducer alone” value in assay [1] (10 μM test substance) was “significantly increased”. Besides, the “decrease” value in assay [1] (10 μM test substance), in assay [2] (10 μM test substance), in assay [3] (10 μM test substance), in assay [4] (10 μM test substance) and in assay [5] (10 μM test substance) was “significantly suppressed” each time. The “HEL detection level in liver tissue (lipid peroxide marker)” value in assay [7] (FIG. 5A) is “substantially decreased”. Besides, the “severe hemorrhage in the liver tissue (HE staining)” value in assay [7] (FIG. 5A) is “relieved”. Moreover, the “plasma GPT level” value in assay [7] (FIG. 5B) was “significantly decreased”. Further, the “proportion of dead cells in liver tissue (TUNEL method)” value in assay [7] (FIGS. 5A and 5C) is “significantly decreased”. For the same compound, the “NBD-Pen fluorescence signal level” value in assay [6] is on record as “decreased”.
On to `Cc1cc(O)c2ccccc2c1O` [vitamin K3 hydroquinone, Menadiol], for which the “decrease” value in assay [1] (1 μM test substance) is listed as “significantly suppressed”. Also, the “NBD-Pen fluorescence signal level” value in assay [6] was “decreased”.
